System: P388
Assay: Cytotoxicity, 50% inhibitory concentration against P388 Mouse T cell leukemia cell line by MTT assay
Assay type: functional, cell-based

SMILES | IC50
COCC(=O)OC1C#CCCCCC#C/C1=C\c1ccccc1 (stereo not given) | 23 µM
COCC(=O)OC(/C1=C/C#CCCCCC#C1)c1ccccc1 (stereo not given) | 7.7 µM
CC(=O)OC1C#CCCCCC#C/C1=C\c1ccc2ccccc2c1 (stereo not given) | 2.8 µM
COc1ccc(C(O)/C2=C/C#CCCCCC#C2)cc1 (stereo not given) | 13 µM
COCC(=O)OC(/C1=C/C#CCCCCC#C1)c1cccc2ccccc12 (stereo not given) | 3.8 µM
OC1C#CCCCCC#C/C1=C\c1ccc2ccccc2c1 (stereo not given) | 3.6 µM
OC1C#CCCCCC#C/C1=C\c1ccccc1 (stereo not given) | 25 µM
COc1ccc(/C=C2\C#CCCCCC#CC2O)cc1 (stereo not given) | 5.8 µM
COCC(=O)OC1C#CCCCCC#C/C1=C\c1cccc2ccccc12 (stereo not given) | 12 µM
CC(=O)OC1C#CCCCCC#C/C1=C\c1cccc2ccccc12 (stereo not given) | 2.4 µM
CC(=O)OC1C#CCCCCC#C/C1=C\c1ccccc1 (stereo not given) | 48 µM
OC1C#CCCCCC#C/C1=C\c1cccc2ccccc12 (stereo not given) | 41 µM
COc1ccc(/C=C2\C#CCCCCC#CC2OC(C)=O)cc1 (stereo not given) | 15 µM
COCC(=O)OC(/C1=C/C#CCCCCC#C1)c1ccc2ccccc2c1 (stereo not given) | 9.5 µM
COCC(=O)OC1C#CCCCCC#C/C1=C\c1ccc2ccccc2c1 (stereo not given) | 28 µM
